Patent publication US11351164B2, “Inhibitors of indoleamine 2,3-dioxygenase and methods of their use” (BRISTOL-MYERS SQUIBB COMPANY, priority 2016, dated 2022)

Assays:
[1] = target: T1, indoleamine 2,3-dioxygenase (IDO) (Homo sapiens, UniProt P14902); test: HeLa cell-based indoleamine 2,3-dioxygenase (IDO) assay (IFNγ-induced kynurenine production, absorbance 480 nm); conditions: HeLa cells, IFNγ 25 ng/mL, 48 hour incubation
T1 construct: host or cells: HeLa cells treated with IFNγ (25 ng/mL)
Procedure: Assessment of inhibitor activity in HeLa cell-based indoleamine 2,3-dioxygenase (IDO) assay:
HeLa (ATCC® CCL-2) cells were obtained from the ATCC® and cultured in Dulbecco's Modified Eagle Medium supplemented with 4.5 g/L glucose, […] L-glutamine and […] (#10-013-CV, Corning), 2 mM L-alanyl-L-glutamine dipeptide (#35050-061, Gibco), 100U/mL penicillin, 100 μg/mL stroptomycin (#SV30010. HyClone) and 10% fetal bovine serum (#SH30071.03 HyClone). Cells were maintained in a humidified incubator at 37° C. in 5% CO2.
IDO activity was assessed as a function of kynurenine production as follows: HeLa cells were seeded in a 96-well culture plate at a density of 5,000 cells/well and allowed to equilibrate overnight. After 24 hours, the media was aspirated and replaced with media containing IFNγ (#285-IF/CF, R&D Systems) at a final concentration of 25 ng/mL. A serial dilution of each test compound was added to the cells in a total volume of 200 μL of culture medium. After a further 48 hour incubation, 170 μL of supernatant was transferred from each well to a fresh 96-well plate, 12.1 μL of 6.1N trichloroacetic acid (#T0699, Sigma-Aldrich) was added to each well and mixed, followed by incubation at 65° C. for 20 minutes to hydrolyze N-formylkynurenine, the product of indoleamine 2,3-dioxygenase, to kynurenine. The reaction mixture was then centrifuged for 10 mins at 500×g to sediment the precipitate. 100 μL of the supernatant was transferred from each well to a fresh 96-well plate. 100 μl of 2% (w/v) p-dimethylaminobenzaldehyde (#15647-7, Sigma-Aldrich) in acetic acid (#A6283, Sigma-Aldrich) was added to each well mixed and incubated at room temperature for 20 mins. Kynurenine concentrations were determined by measuring absorbance at 480 nm and calibrating against an L-kynurenine (#K8625, Sigma-Aldrich) standard curve using a SPECTRAMAX® M2e microplate reader (Molecular Devices). The percentage activity at each inhibitor concentration was determined and IC50 values assessed using nonlinear regression.

human IDO1 = target: T2, human IDO1 (Homo sapiens, UniProt P14902); test: IDO inhibition assay in HEK293 cells stably expressing human IDO1 (kynurenine, Ehrlich reagent, absorbance 490 nm); format: cell-based; conditions: 20 hours incubation, read-out: IDO1 HEK Human IC50
T2 construct: expressed in transfected cells
T2 sequence (P14902 whole entry): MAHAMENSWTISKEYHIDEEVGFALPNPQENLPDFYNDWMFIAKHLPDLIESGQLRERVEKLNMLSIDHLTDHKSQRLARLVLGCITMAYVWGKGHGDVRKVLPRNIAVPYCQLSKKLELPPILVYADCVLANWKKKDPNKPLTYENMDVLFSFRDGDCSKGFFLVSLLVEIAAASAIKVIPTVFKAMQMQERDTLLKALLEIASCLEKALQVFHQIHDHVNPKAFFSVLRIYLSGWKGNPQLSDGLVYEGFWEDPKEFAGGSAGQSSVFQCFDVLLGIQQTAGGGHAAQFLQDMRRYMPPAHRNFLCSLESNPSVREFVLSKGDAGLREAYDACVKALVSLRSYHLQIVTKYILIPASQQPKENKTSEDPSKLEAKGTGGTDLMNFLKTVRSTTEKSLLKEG
Procedure: HEK293 cells were transfected with a pCDNA-based mammalian expression vector harboring human IDO1 cDNA (NM 002164.2) by electroporation. They were cultured in medium (DMEM with 10% FBS) containing 1 mg/ml G418 for two weeks. Clones of HEK293 cells that stably expressed human IDO1 protein were selected and expanded for IDO inhibition assay. The human IDO1/HEK293 cells were seeded at 10,000 cells per 50 μL per well with RPMI/phenol red free media contains 10% FBS in a 384-well black wall clear bottom tissue culture plate (Matrix Technologies LLC) 100 nL of certain concentration of compound was then added to each well using ECHO liquid handling systems. The cells were incubated for 20 hours in 37° C. incubator with 5% CO2. The compound treatments were stopped by adding trichloroacetic acid (Sigma-Aldrich) to a final concentration at 0.2%. The cell plate was further incubated at 50° C. for 30 minute. The equal volume supernatant ([…]) and 0.2% (w/v) Ehrlich reagent (4-dimethylaminobenzaldehyde, Sigma-Aldrich) in glacial acetic acid were mixed in a new clear bottom 384-well plate. This plate was then incubated at room temperature for 30 minute. The absorbance at 490 nm was measured on Envision plate reader. Compound IC50 values were calculated using the counts of 500 nM of a reference standard treatment as one hundred percent inhibition, and counts of no compound but DMSO treatment as zero percent inhibition.

T1 sequence (P14902 whole entry): as above

Compound	IC50 [1]	IC50 (human IDO1)
C[C@@H](Nc1nnc(-c2ccc(C#N)cc2)o1)[C@H]1CC[C@@H](c2ccnc3ccc(F)cc32)CC1 [Example 29, 4-(5-((R)-1-((1s,4S)-4-(6-fluoroquinolin-4-yl)cyclohexyl)ethylamino)-1,3,4-oxadiazol-2-yl)benzonitrile]	55.3 nM	23.5 nM
C[C@@H](c1nnc(-c2ccc(F)cc2)o1)[C@H]1CC[C@@H](c2ccnc3ccc(F)cc32)CC1 [Example 2, 2-(4-Fluorophenyl)-5-((R)-1-((1s,4s)-4-(6-fluoroquinolin-4-yl)cyclohexyl)ethyl)-1,3,4-oxadiazole]	34.8 nM	39.2 nM
C[C@@H](c1nnc(-c2ccccc2)o1)[C@H]1CC[C@@H](c2ccnc3ccc(F)cc32)CC1 [Example 19, 2-((R)-1-((1s,4S)-4-(6-fluoroquinolin-4-yl)cyclohexyl)ethyl)-5-phenyl-1,3,4-oxadiazole]	5.5 nM	13.8 nM
C[C@@H](c1nnc(-c2ccc(Cl)cc2)s1)[C@H]1CC[C@@H](c2ccnc3ccc(F)cc32)CC1 [Example 5, 2-(4-Chlorophenyl)-5-((R)-1-((1s,4S)-4-(6-fluoroquinolin-4-yl)cyclohexyl)ethyl)-1,3,4-thiadiazole]	35 nM	15.1 nM
C[C@@H](c1nnc(-c2ccc(F)cc2)[nH]1)[C@H]1CC[C@@H](c2ccnc3ccc(F)cc32)CC1 [Example 3, 6-Fluoro-4-((1s,4s)-4-((R)-1-(5-(4-fluorophenyl)-4H-1,2,4-triazol-3-yl)ethyl)cyclohexyl)quinoline]	16.7 nM	42.3 nM
CCC(Nc1nnc(-c2ccc(OC)cc2)o1)[C@H]1CC[C@@H](c2ccnc3c(C(F)(F)F)cccc32)CC1 (some centres unmarked) [Example 68, 5-(4-Methoxyphenyl)-N-(1-((1s,4s)-4-(8-(trifluoromethyl)quinolin-4-yl)cyclohexyl)propyl)-1,3,4-oxadiazol-2-amine]	20.2 nM	
CC(C)Oc1ccc(-c2nnc([C@H](C)[C@H]3CC[C@@H](c4ccnc5ccc(F)cc54)CC3)[nH]2)cc1 [Example 12, 6-fluoro-4-((1S,4s)-4-((R)-1-(5-(4-isopropoxyphenyl)-4H-1,2,4-triazol-3-yl)ethyl)cyclohexyl)quinoline]	39 nM	22.5 nM
C[C@@H](c1ncc(-c2ccc(Cl)cc2)[nH]1)[C@H]1CC[C@@H](c2ccnc3ccc(F)cc32)CC1 [Example 44, 4-((1s,4s)-4-((R)-1-(5-(4-Chlorophenyl)-1H-imidazol-2-yl)ethyl)cyclohexyl)-6-fluoroquinoline]	10.5 nM	12.4 nM
C[C@@H](Nc1ncc(-c2ccc(Cl)cc2)o1)[C@H]1CC[C@@H](c2ccnc3ccc(F)cc32)CC1 [Example 38, 5-(4-Chlorophenyl)-N—((R)-1-((1s,4S)-4-(6-fluoroquinolin-4-yl)cyclohexyl)ethyl)oxazol-2-amine]	21.1 nM	
C[C@@H](c1nnc(-c2ccccc2)[nH]1)[C@H]1CC[C@@H](c2ccnc3ccc(F)cc32)CC1 [Example 13, 6-fluoro-4-((1S,4s)-4-((R)-1-(5-phenyl-4H-1,2,4-triazol-3-yl)ethyl)cyclohexyl)quinoline]	118 nM	48.2 nM
CCC(Nc1nnc(-c2ccc(Cl)cc2)o1)[C@H]1CC[C@@H](c2ccnc3ccc(C(F)(F)F)cc32)CC1 (single isomer, unassigned) [Example 58-1, 5-(4-Chlorophenyl)-N-(1-((1s,4s)-4-(6-(trifluoromethyl)quinolin-4-yl)cyclohexyl)propyl)-1,3,4-oxadiazol-2-amine]	326 nM	
CCC(Nc1nnc(-c2ccc(OC)cc2)o1)C1CCC(Oc2ccnc3ccccc23)CC1 (single isomer, unassigned) [Example 64-1]	916 nM	
C[C@@H](c1nnc(Nc2ccccc2)[nH]1)[C@H]1CC[C@@H](c2ccnc3ccc(F)cc32)CC1 [Example 22, 5-((R)-1-((1s,4s)-4-(6-Fluoroquinolin-4-yl)cyclohexyl)ethyl)-N-phenyl-4H-1,2,4-triazol-3-amine]	8.8 nM	5.9 nM
CCC(Nc1nnc(-c2ccc(OC)cc2)o1)C1CCC(c2ccnc3ccc(C(F)(F)F)cc23)CC1 (single isomer, unassigned) [Example 59, 5-(4-methoxyphenyl)-N-(1-((1s,4s)-4-(6-(trifluoromethyl)quinolin-4-yl)cyclohexyl)propyl)-1,3,4-oxadiazol-2-amine]	4.7 nM	6 nM
CCC(Nc1nnc(-c2ccc(OC)cc2)o1)C1CCC(Oc2ccnc3ccccc23)CC1 (single isomer, unassigned) [Example 64-2]	8.9 nM	
CCC(Nc1nnc(-c2ccc(Cl)cc2)o1)[C@H]1CC[C@@H](c2ccnc3ccc(C(F)(F)F)cc32)CC1 (single isomer, unassigned) [Example 58-2, 5-(4-Chlorophenyl)-N-(1-((1s,4s)-4-(6-(trifluoromethyl)quinolin-4-yl)cyclohexyl)propyl)-1,3,4-oxadiazol-2-amine]	7.4 nM	
Cc1cnc(-c2nnc(N[C@H](C)[C@H]3CC[C@@H](c4ccnc5ccc(F)cc54)CC3)o2)s1 [Example 30, N-((R)-1-((1s,4S)-4-(6-fluoroquinolin-4-yl)cyclohexyl)ethyl)-5-(5-methylthiazol-2-yl)-1,3,4 oxadiazol-2-amine]	13.3 nM	10.6 nM
COCC(Nc1nnc(-c2ccc(OC)cc2)o1)[C@H]1CC[C@@H](c2ccnc3ccc(F)cc32)CC1 (single isomer, unassigned) [Example 65-1, N-(1-((1s,4s)-4-(6-Fluoroquinolin-4-yl)cyclohexyl)-2-methoxyethyl)-5-(4-methoxyphenyl)-1,3,4-oxadiazol-2-amine]	15.6 nM	
C[C@@H](c1nnc(-c2ccc(Cl)cc2)[nH]1)[C@H]1CC[C@@H](c2ccnc3ccc(F)cc32)CC1 [Example 1, 4-((1s,4s)-4-((R)-1-(5-(4-Chlorophenyl)-4H-1,2,4-triazol-3-yl)ethyl)cyclohexyl)-6-fluoroquinoline]	14.8 nM	47.5 nM
C[C@@H](c1nnc(-c2cccc(F)c2)[nH]1)[C@H]1CC[C@@H](c2ccnc3ccc(F)cc32)CC1 [Example 14, 6-fluoro-4-((1S,4s)-4-((R)-1-(5-(3-fluorophenyl)-4H-1,2,4-triazol-3-yl)ethyl)cyclohexyl)quinoline]	72.2 nM	36.2 nM
C[C@@H](c1nnc(-c2ccc(F)c(Cl)c2)[nH]1)[C@H]1CC[C@@H](c2ccnc3ccc(F)cc32)CC1 [Example 11, 4-((1S,4s)-4-((R)-1-(5-(3-chloro-4-fluorophenyl)-4H-1,2,4-triazol-3-yl)ethyl)cyclohexyl)-6-fluoroquinoline]	162 nM	86 nM
CCC(Nc1nnc(-c2ccc(OC)cc2)o1)[C@H]1CC[C@@H](c2ccnc(F)c2C)CC1 (single isomer, unassigned) [Example 63-1, N-(1-((1s,4s)-4-(2-Fluoro-3-methylpyridin-4-yl)cyclohexyl)propyl)-5-(4-methoxyphenyl)-1,3,4-oxadiazol-2-amine]	26.2 nM	
C[C@@H](Nc1ncc(-c2ccc(Cl)cc2)s1)[C@H]1CC[C@@H](c2ccnc3ccc(F)cc32)CC1 [Example 39, 5-(4-Chlorophenyl)-N—((R)-1-((1s,4S)-4-(6-fluoroquinolin-4-yl)cyclohexyl)ethyl)thiazol-2-amine]	288 nM	
CCC(Nc1nnc(-c2ccc(OC)cc2)o1)C1CCC(c2ccnc3ccc(C(F)(F)F)cc23)CC1 (single isomer, unassigned) [Example 60, 5-(4-methoxyphenyl)-N-(1-((1s,4s)-4-(6-(trifluoromethyl)quinolin-4-yl)cyclohexyl)propyl)-1,3,4-oxadiazol-2-amine]	54.8 nM	
